Data from the supplement of paper PMC4862054.

Legend:
HCC1599 = assay: drug sensitivity score (DSS), CellTiter-Glo (DSS (AUC-based score)); higher = stronger drug effect (viability inhibition or cytotoxicity); extreme values may be limits of the assay; settings: incubation time: 72 h
In short: (§1)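 Breast cancer cells were seeded into 384-well plates containing compound at 5 concentrations in 10-fold steps over a compound-specific 10,000-fold range and incubated 72 h. After CellTox Green and CellTiter-Glo readings, each plate was normalised to 0.1 % DMSO and a positive kill control. The drug sensitivity score rests on the area under the fitted dose-response curve.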

CAL-85-1 [1] = assay: as above; settings: incubation time: 72 h
In short: as §1

CAL-51 = settings: 72 h
In short: (§2)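 Each 384-well plate was pre-loaded with compound dissolved in 5 µl medium, received breast cancer cells in 20 µl suspension, and was incubated 72 h. A 2.5 µl addition of CellTiter-Blue for 2 h at 37 °C was followed by a fluorescence read at 560/590 nm. Data were normalised per plate to vehicle and a positive kill control and checked by Z'-factor. EC50 was fitted from the percent-inhibition dose-response curve, censored at the highest concentration, excluding rows with a drug sensitivity score of zero.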

CAL-148 = settings: 72 h
In short: as §2

CAL-85-1 [2] = settings: 72 h
In short: as §2

HDQ-P1 = settings: 72 h
In short: as §2

DU-4475 = settings: 72 h
In short: as §2

MDA-MB-453 = settings: 72 h
In short: as §2

SMILES	drug sensitivity score (HCC1599)	drug sensitivity score (CAL-85-1 [1])	EC50, CellTiter-Blue viability (CAL-51) [nM]	EC50, CellTiter-Blue viability (CAL-148) [nM]	EC50, CellTiter-Blue viability (CAL-85-1 [2]) [nM]	EC50, CellTiter-Blue viability (HDQ-P1) [nM]	EC50, CellTiter-Blue viability (DU-4475) [nM]	EC50, CellTiter-Blue viability (MDA-MB-453) [nM]
CC(=O)O[C@H]1C(=O)[C@@]2(C)[C@H]([C@H](OC(=O)c3ccccc3)[C@]3(O)C[C@H](OC(=O)[C@H](O)[C@@H](NC(=O)c4ccccc4)c4ccccc4)C(C)=C1C3(C)C)[C@]1(OC(C)=O)CO[C@@H]1C[C@@H]2O [Paclitaxel]	14.2	22.8	12.2	6.75	7.28	1.26	18.6	4.03
COc1c(C)cnc(Cn2cnc3c(Cl)nc(N)nc32)c1C [BIIB021]	10.4	14.7	341	133	490	241	143	64
COC(=O)C[C@](O)(CCCC(C)(C)O)C(=O)O[C@@H]1C(OC)=C[C@]23CCCN2CCc2cc4c(cc2[C@H]13)OCO4 [Omacetaxine]	26.7	29.6	21.5	13.7	17.4	13.8	5.48	24.7
COC1=C2C[C@@H](C)C[C@H](OC)[C@H](O)[C@@H](C)/C=C(\C)[C@H](OC(N)=O)[C@@H](OC)/C=C\C=C(/C)C(=O)NC(=CC1=O)C2=O [Geldanamycin]	1.53	6	535	223	270	81.4	137	96.5
C#Cc1cccc(Nc2ncnc3cc(OC)c(OCCCCCCC(=O)NO)cc23)c1 [CUDC-101]	11.4	19.7	3790	817	426	213	1130	168
COc1cccc2c1C(=O)c1c(O)c3c(c(O)c1C2=O)C[C@@](O)(C(C)=O)C[C@@H]3O[C@H]1C[C@H](N)[C@H](O)[C@H](C)O1 [Daunorubicin]	2.8	4.68	59	66.1	290	338	56.4	465
CC(C)C[C@H](NC(=O)[C@H](Cc1ccccc1)NC(=O)c1cnccn1)B(O)O [Bortezomib]	9.67	28.4	38.9	24.7	7.76	5.29	18.6	6.36
COc1ncc(-c2ccc3nccc(-c4ccnnc4)c3c2)cc1NS(=O)(=O)c1ccc(F)cc1F	9.77	16.4	12.6	27.6	27.2	6.71	113	5.38
COC1=CC(c2cc3ccccc3[nH]2)=N/C1=C\c1[nH]c(C)cc1C [Obatoclax]	0	4.01	2060	3150	982	95.6	6650	632
C[C@@]1(C(=O)Nc2ccc(F)nc2)CCCN1c1nc(Nc2cc(C3CC3)n[nH]2)c2cccn2n1	5.62	10.7	1500	1170	858	293	1510	314
